Results reported in ChEMBL document CHEMBL3600301, “CholesteroNitrones for Stroke” (J Med Chem, 2015).
Active and inactive are the calls of the source. No cut-off for these calls is given here.

Legend:
[1] = test system: Rattus norvegicus; assay: Neuroprotection in Wistar rat model of ischemia assessed as reduction ischemia-induced neuronal death in hippocampal CA1 regions at 0.1 mg/kg, ip dosed at onset of reperfusion period and measured on 5 days of reperfusion by fluoro jade B staining based fluorescence microscopy; type: functional; design: scale not given: the % may be the effect or the level left
[2] = Protection against oxygen-glucose deprivation-induced cytotoxicity in Sprague-Dawley rat cerebral cortex primary neuronal cell cultures assessed as increase in cell viability at 5 uM added at onset of recovery period and measured during recovery for 5 days by MTT assay (reference value: 0.842 AU); type: functional, Primary neuron
[3] = test system: Primary neuron; assay: Reduction of oxygen-glucose deprivation-induced ROS generation in Sprague-Dawley rat cerebral cortex primary neuronal cell cultures at 1 to 10 uM measured at 2 hrs of recovery after oxygen-glucose deprivation by fluorescence assay; type: functional, tissue-based
[4] = test system: Rattus norvegicus; assay: Neuroprotection in Wistar rat model of ischemia assessed as reduction in neurological deficit score at 0.1 mg/kg measured after 5 days of reperfusion (reference value: 2.5 +/- 0.34 No unit); type: functional
[5] = test system: Primary neuron; assay: Protection against oxygen-glucose deprivation-induced cytotoxicity in Sprague-Dawley rat cerebral cortex primary neuronal cell cultures assessed as increase in cell viability at 1 and 5 uM added at onset of recovery period and measured during recovery for 5 days by MTT assay; type: functional, tissue-based
[6] = test system: Rattus norvegicus; assay: Neuroprotection in Wistar rat model of ischemia assessed as reduction in neurological deficit score at 0.005 mg/kg measured after 5 days of reperfusion (reference value: 2.5 +/- 0.34 No unit); type: functional
[7] = Toxicity in Sprague-Dawley rat cerebral cortex primary neuronal cell cultures under oxygen-glucose deprivation conditions assessed as […] in cell viability at >10 uM added at onset of recovery period by MTT assay; type: tissue-based; conditions: primary neuron
[8] = test system: Primary neuron; assay: Reduction of oxygen-glucose deprivation-induced lipid peroxidation in Sprague-Dawley rat cerebral cortex primary neuronal cell cultures assessed as reduction in MDA level at 5 uM measured at 4 hrs of recovery after oxygen-glucose deprivation by TBARS based colorimetric and fluorometric assay; type: functional, tissue-based
[9] = test system: Primary neuron; assay: Protection against oxygen-glucose deprivation-induced cytotoxicity in Sprague-Dawley rat cerebral cortex primary neuronal cell cultures assessed as increase in cell viability at 250 uM added at onset of recovery period by MTT assay; type: functional, tissue-based
[10] = test system: Rattus norvegicus; assay: Neuroprotection in Wistar rat model of ischemia assessed as reduction ischemia-induced neuronal apoptosis in cortical regions at 0.05 and 0.1 mg/kg, ip dosed at onset of reperfusion period and measured on 5 days of reperfusion by TUNEL assay; type: functional; design: scale not given: the % may be the effect or the level left
[11] = test system: Rattus norvegicus; assay: Neuroprotection in Wistar rat model of ischemia assessed as reduction ischemia-induced neuronal death in hippocampal CA1 regions at 0.05 mg/kg, ip dosed at onset of reperfusion period and measured on 5 days of reperfusion by fluoro jade B staining based fluorescence microscopy; type: functional; design: scale not given: the % may be the effect or the level left
[12] = test system: Rattus norvegicus; assay: Neuroprotection in Wistar rat model of ischemia assessed as reduction ischemia-induced neuronal death in cortical regions at 0.1 mg/kg, ip dosed at onset of reperfusion period and measured on 5 days of reperfusion by fluoro jade B staining based fluorescence microscopy; type: functional; design: scale not given: the % may be the effect or the level left
[13] = test system: Rattus norvegicus; assay: Neuroprotection in Wistar rat model of ischemia assessed as reduction ischemia-induced neuronal death in cortical regions at 0.05 mg/kg, ip dosed at onset of reperfusion period and measured on 5 days of reperfusion by fluoro jade B staining based fluorescence microscopy; type: functional; design: scale not given: the % may be the effect or the level left
[14] = test system: Rattus norvegicus; assay: Neuroprotection in Wistar rat model of ischemia assessed as reduction ischemia-induced neuronal apoptosis in hippocampal CA1 regions at 0.05 and 0.1 mg/kg, ip dosed at onset of reperfusion period and measured on 5 days of reperfusion by TUNEL assay; type: functional; design: scale not given: the % may be the effect or the level left
[15] = test system: Primary neuron; assay: Protection against oxygen-glucose deprivation-induced cytotoxicity in Sprague-Dawley rat cerebral cortex primary neuronal cell cultures assessed as increase in cell viability at 5 uM added at onset of recovery period by MTT assay; type: functional, tissue-based
[16] = Protection against oxygen-glucose deprivation-induced cytotoxicity in Sprague-Dawley rat cerebral cortex primary neuronal cell cultures assessed as increase in cell viability at 1 uM added at onset of recovery period and measured during recovery for 5 days by MTT assay (reference value: 0.842 AU); type: functional, Primary neuron
[17] = test system: Primary neuron; assay: Protection against oxygen-glucose deprivation-induced cytotoxicity in Sprague-Dawley rat cerebral cortex primary neuronal cell cultures assessed as increase in cell viability at 1 uM added at onset of recovery period by MTT assay; type: functional, tissue-based
[18] = test system: Primary neuron; assay: Protection against oxygen-glucose deprivation-induced cytotoxicity in Sprague-Dawley rat cerebral cortex primary neuronal cell cultures assessed as increase in cell viability at 1 and 5 uM added after 48 hrs post recovery period and measured during recovery for 5 days by MTT assay; type: functional, tissue-based
[19] = test system: Primary neuron; assay: Protection against oxygen-glucose deprivation-induced cytotoxicity in Sprague-Dawley rat cerebral cortex primary neuronal cell cultures assessed as increase in cell viability at 0.1 to 250 uM added at onset of recovery period by MTT assay; type: functional, tissue-based
[20] = test system: Rattus norvegicus; assay: Neuroprotection in Wistar rat model of ischemia assessed as reduction ischemia-induced neuronal apoptosis in hippocampal CA1 regions at 40 mg/kg, ip dosed at onset of reperfusion period and measured on 5 days of reperfusion by TUNEL assay; type: functional; design: scale not given: the % may be the effect or the level left
[21] = test system: Primary neuron; assay: Protection against oxygen-glucose deprivation-induced cytotoxicity in Sprague-Dawley rat cerebral cortex primary neuronal cell cultures assessed as increase in cell viability at 250 uM added at onset of recovery period and measured during recovery for 5 days by MTT assay; type: functional, tissue-based
[22] = test system: Rattus norvegicus; assay: Neuroprotection in Wistar rat model of ischemia assessed as reduction ischemia-induced neuronal apoptosis in cortical regions at 40 mg/kg, ip dosed at onset of reperfusion period and measured on 5 days of reperfusion by TUNEL assay; type: functional; design: scale not given: the % may be the effect or the level left
[23] = test system: Rattus norvegicus; assay: Neuroprotection in Wistar rat model of ischemia assessed as reduction ischemia-induced neuronal death in cortical regions at 40 mg/kg, ip dosed at onset of reperfusion period and measured on 5 days of reperfusion by fluoro jade B staining based fluorescence microscopy; type: functional; design: scale not given: the % may be the effect or the level left
[24] = test system: Rattus norvegicus; assay: Neuroprotection in Wistar rat model of ischemia assessed as reduction ischemia-induced neuronal death in hippocampal CA1 regions at 40 mg/kg, ip dosed at onset of reperfusion period and measured on 5 days of reperfusion by fluoro jade B staining based fluorescence microscopy; type: functional; design: scale not given: the % may be the effect or the level left
[25] = test system: Primary neuron; assay: Protection against oxygen-glucose deprivation-induced cytotoxicity in Sprague-Dawley rat cerebral cortex primary neuronal cell cultures assessed as increase in cell viability at 250 uM added after 48 hrs post recovery period and measured during recovery for 5 days by MTT assay; type: functional, tissue-based
[26] = test system: Rattus norvegicus; assay: Neuroprotection in Wistar rat model of ischemia assessed as reduction in neurological deficit score at 40 mg/kg measured after 5 days of reperfusion; type: functional, organism-based
[27] = Toxicity in Sprague-Dawley rat cerebral cortex primary neuronal cell cultures under oxygen-glucose deprivation conditions assessed as […] in cell viability at >50 uM added at onset of recovery period by MTT assay; type: tissue-based; conditions: primary neuron

For `CC(C)CCC[C@@H](C)[C@H]1CC[C@H]2[C@@H]3CCC4=C/C(=[N+](\C)[O-])CC[C@]4(C)[C@H]3CC[C@]12C`, the Activity [1] was 27%, the Activity [2] was 0.995 a.u and the Activity [3] was “Active”. For the same compound, the Activity [4] was 1.25, the Activity [5] was “Active” and the Activity [6] was 0.5. For the same compound, the Activity [7] was “Toxic”, the Activity [8] was “Active” and the Activity [9] was “Active”. The Activity [10] was 89%, the Activity [11] was 17% and the Activity [12] was 83%. For the same compound, the Activity [13] was 66%, the Activity [14] was 30% and the Activity [15] was “Active”. For the same compound, the Activity [16] was 0.931 a.u, the Activity [17] was “Active” and the Activity [18] was “Active”.

In the case of `CC(C)CCC[C@@H](C)[C@H]1CC[C@H]2[C@@H]3CC=C4CC(=O)CC[C@]4(C)[C@H]3CC[C@]12C`, the Activity [19] is reported as “inactive”.

In the case of `CC(C)CCC[C@@H](C)[C@H]1CC[C@H]2[C@@H]3CCC4=C/C(=[N+](/C)[O-])CC[C@]4(C)[C@H]3CC[C@]12C`, the Activity [2] is reported as 0.998 a.u, the Activity [5] is reported as “Active” and the Activity [15] is reported as “inactive”. For the same compound, the Activity [16] was 0.888 a.u, the Activity [17] was “inactive” and the Activity [18] was “Active”.

In the case of `CC(C)(C)/[N+]([O-])=C/c1ccc(S(=O)(=O)[O-])cc1S(=O)(=O)[O-].[Na+].[Na+]`, the Activity [20] is reported as 21%, the Activity [21] is reported as “inactive” and the Activity [22] is reported as 55%. The Activity [9] was “Active”, the Activity [23] was 66% and the Activity [24] was 17%. The Activity [25] was “inactive” and the Activity [26] was “inactive”.

With `CC(C)CCC[C@@H](C)[C@H]1CC[C@H]2[C@@H]3CCC4=CC(=O)CC[C@]4(C)[C@H]3CC[C@]12C` [4-CHOLESTEN 3-ONE] the Activity [19] was “inactive” and the Activity [27] was “Toxic”.
